Reference: patent publication US4346089A, “1-Aza-4-oxa-bicyclo [4,4,0]decane derivatives” (Beecham Group Limited, priority 1980, dated 1982)
Like-named read-outs stand apart in the source and are kept apart here.

Columns and labels:
Assay type in all cases: in vivo
intragastric pressure [1] = experiment: Increase in intragastric pressure in the rat (gastric activity); settings: sc, 40 min, conscious starved rats, subcutaneous, 40 minute period after administration, read-out: minimum dose for activity (increase in intragastric pressure), Dose mg/kg Subcutaneously
Protocol: Increase in intragastric pressure in the rat
Intragastric pressure changes were recorded from previously starved conscious but retrained rats using a saline filled catheter inserted into the lumen of the stomach via a permanent gastric fistula. The catheter was connected to a physiological pressure transducer and pressure changes recorded on a hot wire pen recorder. In each animal pre-dose period of 40 minutes was allowed to obtain a measure of spontaneous activity. An index of activity was obtained by measuring the average height of pressure waves during 10 minute periods. Values for 4 such periods were obtained during assessment of spontaneous activity and for the 40 minute period after the subcutaneous administration of the compounds. Students `t` test was applied to the difference in average values obtained for spontaneous and post-compound activity.

[2] = test system: apomorphine induced climbing; experiment: Inhibition of apomorphine induced climbing in the mouse; settings: apomorphine 1 mg/kg s.c.; for ED50: Mus musculus, sc, scored at 10, 20 and 30 minutes, read-out: Dose mg/kg ED50 (dose that inhibits the apomorphine response by 50%)
Protocol: Compounds were also tested for their ability to inhibit apomorphine induced climbing in the mouse. Inactivity in this test may be indicative of a low propensity to produce extra-pyramidal side-effects in man.
The method used for this test is as set out below:
Inhibition of apomorphine induced climbing in the mouse
The test is based on that described by Protais, P., Constantin, J. and Schwartz, J. C. (1976), Psychopharmacology, 50, 1-6.
Apomorphine 1 mg/kg s.c. induces mice to climb the wall of a wire cage (inverted food hopper--11×7.5×18 cm high). Mice acclimatised in their home cages in groups of 5 are placed under the hoppers immediately after the injection of apomorphine 1 mg/kg s.c. At 10, 20 and 30 minutes after injection climbing behaviour is scored. The mice are observed for 30 seconds and scored according to the position in which they spend the majority of time, score 0--four paws on floor of cage; score 1--fore paws only on walls; score 2--all paws on wall of cage.
The scores at all 3 times for each mouse are summed for apomorphine only and for apomorphine plus compound groups of mice.
Total scores are then calculated as the percentage inhibition of climbing as follows: [formula]
From graphical representation of the results ED50 values (the dose that inhibits the apomorphine response by 50%) are then obtained.

intragastric pressure [3] = experiment: Increase in intragastric pressure in the rat (gastric activity); settings: conscious starved rats, oral, read-out: minimum dose for activity (increase in intragastric pressure), Dose mg/kg Orally

| Compound | minimal effective dose (intragastric pressure [1]) [mg/kg] | Dose mg/kg ED50: Ia at stated dose (inhibition of apomorphine induced climbing) ([2]; at 10 mg/kg po) | ED50 ([2]; route of compound not given) [mg/kg] | minimal effective dose (intragastric pressure [3]) [mg/kg] | Dose mg/kg ED50: Ia at stated dose (inhibition of apomorphine induced climbing) ([2]; at 25 mg/kg, route of compound not given) |
| --- | --- | --- | --- | --- | --- |
| COc1cc(N)c(Cl)cc1C(=O)N[C@H]1CCN2CC[S+]([O-])C[C@H]2C1 (mixture of isomers) [Example 18, (±) 4-Amino-5-chloro-2-methoxy-N-(8β-1-aza-6α-H-4-oxothiabicyclo[4,4,0]decyl)benzamide] | 1 |  |  |  |  |
| COc1cc(N)c(Cl)cc1C(=O)NC1CCN2CC[S+]([O-])CC2C1 (racemic) [Example 16, (±) 4-Amino-5-chloro-2-methoxy-N-(8α,β-1-aza-6α-H-4-oxothiabicyclo[4,4,0]decyl)benzamide] | 5 | Ia at 10 po |  |  |  |
| COc1cc(N)c(Cl)cc1C(=O)N[C@H]1CCN2CCOC[C@@H]2C1 (relative stereo) [Example 2, (±) 4-Amino-5-chloro-2-methoxy-N-(8α-1-aza-6α-H-4-oxabicyclo [4,4,0]decyl)benzamide] | 0.5 |  | 70 | 0.5 |  |
| COc1cc(N)c(Cl)cc1C(=O)N[C@H]1CCN2CCOC[C@H]2C1 (relative stereo) [Example 4, (±) 4-Amino-5-chloro-2-methoxy-N-(8β-1-aza-6α-H-4-oxabicyclo [4,4,0]delcyl)benzamide] | 1 |  | 30 |  |  |
| COc1cc(N)c(Cl)cc1C(=O)N[C@H]1CCN2[C@H](COC[C@H]2C)C1 (relative stereo) [Example 6, (±) 4-Amino-5-chloro-2-methoxy-N-(8α-1-aza-2β-methyl-6α-H-4-oxabicyclo[4,4,0]decyl)benzamide] | 0.2 |  | 40 | 0.5 |  |
| COc1cc(N)c(Cl)cc1C(=O)N[C@H]1CCN2CCSC[C@@H]2C1 (relative stereo) [Example 8, (±) 4-Amino-5-chloro-2-methoxy-N-(8α-1-aza-6α-H-4-thiabicyclo [4,4 ,0]decyl)benzamide] | 5 |  |  |  | Ia at 25 |
| COc1cc(N)c(Cl)cc1C(=O)N[C@H]1CCN2CCSC[C@H]2C1 (relative stereo) [Example 10, (±) 4-Amino-5-chloro-2-methoxy-N-(8β-aza-6α-H-4-thiabicyclo [4,4,0]decyl)benzamide] | 1 |  |  |  |  |
| COc1cc(N)c(Cl)cc1C(=O)N[C@H]1CCN2[C@H](COC[C@H]2c2ccccc2)C1 (relative stereo) [Example 12, (±) 4-Amino-5-chloro-2-methoxy-N-(8α-1-aza-2β-phenyl-6α-H-4-oxabicyclo[4,4,0]decyl)benzamide] |  |  | 30 |  |  |
| COc1cc(N)c(Cl)cc1C(=O)N[C@@H]1CCN2[C@H](COC[C@H]2c2ccccc2)C1 (relative stereo) [Example 14, (±) 4-Amino-5-chloro-2-methoxy-N-(8β-1-aza-2β-phenyl-6α-H-4-oxabicyclo[4,4,0]decyl)benzamide monohydrate] | 1 | Ia at 10 po |  |  |  |
